The text below walks through data of patent US20250230165A1, “HETEROCYCLIC COMPOUNDS FOR USE IN THE TREATMENT OF CANCER” (ARTIOS PHARMA LIMITED, priority 2021, published 2025).

The target of the test is T1, Human Polθ polymerase domain (aa1820-2590) (Homo sapiens, UniProt O75417).
T1 construct: Human Polθ polymerase domain (aa1820-2590) was expressed in E. coli; made in house; host or cells: E. coli
T1 sequence (O75417 1820-2590): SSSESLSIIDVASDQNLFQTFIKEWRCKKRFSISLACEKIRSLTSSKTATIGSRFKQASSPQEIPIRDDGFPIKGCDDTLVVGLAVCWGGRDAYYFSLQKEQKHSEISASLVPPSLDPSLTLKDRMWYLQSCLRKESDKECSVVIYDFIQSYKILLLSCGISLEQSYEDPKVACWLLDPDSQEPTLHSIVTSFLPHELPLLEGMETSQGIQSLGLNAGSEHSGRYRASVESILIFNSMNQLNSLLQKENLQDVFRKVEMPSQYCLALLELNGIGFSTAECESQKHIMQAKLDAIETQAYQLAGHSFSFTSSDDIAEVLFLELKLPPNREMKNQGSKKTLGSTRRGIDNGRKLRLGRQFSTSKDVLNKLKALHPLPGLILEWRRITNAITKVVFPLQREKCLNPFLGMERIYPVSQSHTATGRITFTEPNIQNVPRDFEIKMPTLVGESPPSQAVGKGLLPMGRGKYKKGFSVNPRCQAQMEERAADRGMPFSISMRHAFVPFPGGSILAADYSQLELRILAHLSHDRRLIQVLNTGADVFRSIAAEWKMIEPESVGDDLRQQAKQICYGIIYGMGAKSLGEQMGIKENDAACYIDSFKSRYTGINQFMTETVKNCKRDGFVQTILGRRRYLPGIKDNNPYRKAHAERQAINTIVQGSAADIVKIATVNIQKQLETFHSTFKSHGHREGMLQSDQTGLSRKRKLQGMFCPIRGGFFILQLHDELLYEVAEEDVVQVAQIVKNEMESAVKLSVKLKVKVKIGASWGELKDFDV
Description: Polθ Polymerase Domain Kinact/KI Assay (PicoGreen). Type of test: biochemical. The following applies: 0.8 nM Polθ, 100 nM DNA substrate, kobs vs [I] fit for 2-step covalent inhibitor. The procedure:
Polθ Polymerase Domain Kinact/KI Assay
A PicoGreen assay was used to measure the Kinact and KI values of covalent compounds that inhibit the activity of Polθ in vitro.
Human Polθ polymerase domain (aa1820-2590) was expressed in E. coli, purified, aliquoted and stored at −80° C. until required. Polθ substrate was generated from a 1.2:1 mix of DNA II Short to DNA II Long to give a final concentration of […] substrate in annealing buffer (20 mM Tris pH 7.5, 50 mM NaCl). The substrate was heated in […] aliquots to 95° C. in a heating block for 5 min before the heating block switched off, the reaction left to cool to rt and stored at −20° C. until required.
Assay measurements were performed with 1× buffer comprising 25 mM Tris pH 7.5, 12.5 mM NaCl, […], 5% (v/v) glycerol, 0.01% v/v Triton x-100, 0.1 mg/ml BSA, 1 mM DTT. Test compounds were prepared by dilution in 100% DMSO to give a 12 μM intermediate stock of each (100× final top concentration). 100 nL of 23×1:1.5-fold serial dilutions and a DMSO only control were dispensed using the Tecan dispenser into Greiner 384 well black low volume plates (product code 784076). DMSO concentration was maintained at 1% of the final assay volume by back filling with DMSO.
2× Working stock of substrate (200 nM of DNA substrate and […] dNTPs) and enzyme ([…] PolΘ) were made up in assay buffer. 5 μL/well of both enzyme and substrate 2× solutions were dispensed using a Tempest dispenser (Formulatrix) into assay plates that had been pre-dispensed with compound to give a final assay concentration of 100 nM DNA substrate, […] dNTPs and 0.8 nM Polθ. To stop the reaction, […] of a solution containing 25 mM Tris-HCl pH 7.5 and 20 mM EDTA was added at […] (t=0, 2.5, 5, 7.5, 10, 12.5, 15, 20, 25, 30, 35, 40, 45, 50, 55 and 60 min) using the Tempest's time delay function. The plates were covered during the time course to prevent evaporation. After completing the assay, 5 μL of detection reagent (25 mM Tris-HCl pH 7.5 and 2.5% (v/v) PicoGreen) was dispensed into the wells using a Tempest liquid handler (Formulatrix) and plates subsequently read on the CLARIOstar Plus (BMG Labtech) using the default optical settings for fluorescein and the auto gain/focus settings.
All data analysis was carried out using GraphPad Prism V.8 (GraphPad Software Inc, San Diego, CA) Time course data for each inhibitor concentration was fitted to equation 1 to determine kobs values.^1 Any time points where the control (DMSO alone) reaction was no longer linear were excluded from the analysis. 1) Evaluation of Enzyme Inhibitors in Drug Discovery (Ch9), R. A Copeland, Wiley, 2nd Edition 2013.
A secondary plot of kobs vs [I] is used to determine the Kinact and KI parameters (for a 2-step covalent inhibitor) by fitting to equation 2.^1

Turning to `C=CC(=O)N1CC2CC(C1)N2CCN1C[C@H]2CC(=O)N(c3cc(C(F)(F)F)cc(C)n3)[C@@H]2C(=O)N(C)c2cccc(C)c21` [Example 261, (3aR,11aS)-5-(2-(3-acryloyl-3,6-diazabicyclo[3.1.1]heptan-6-yl)ethyl)-6,10-dimethyl-1-(6-methyl-4-(trifluoromethyl)pyridin-2-yl)-1,3a,4,5,10,11a-hexahydro-2H-benzo[b]pyrrolo[2,3-f][1,4]diazocine-2,11(3H)-dione], the Kinact/Kl was found to be 340000 M⁻¹ s⁻¹.

For the compound `C=CC(=O)Nc1ccc(CN2C[C@H]3CC(=O)N(c4cc(C(F)(F)F)cc(C)n4)[C@@H]3C(=O)N(C)c3cccc(Cl)c32)nc1` [Example 283, N-(6-(((3aR,11aS)-6-chloro-10-methyl-1-(6-methyl-4-(trifluoromethyl)pyridin-2-yl)-2,11-dioxo-1,2,3,3a,4,10,11,11a-octahydro-5H-benzo[b]pyrrolo[2,3-f][1,4]diazocin-5-yl)methyl)pyridin-3-yl)acrylamide], the Kinact/Kl is 950000 M⁻¹ s⁻¹.

In the case of `C=CC(=O)N1CC(N2CCN(C(=O)CN3C[C@H]4CC(=O)N(c5cc(C(F)(F)F)cc(C)n5)[C@@H]4C(=O)N(C)c4cccc(F)c43)CC2)C1` [Example 51, (3aR,11aS)-5-(2-(4-(1-acryloylazetidin-3-yl)piperazin-1-yl)-2-oxoethyl)-6-fluoro-10-methyl-1-(6-methyl-4-(trifluoromethyl)pyridin-2-yl)-1,3a,4,5,10,11a-hexahydro-2H-benzo[b]pyrrolo[2,3-f][1,4]diazocine-2,11(3H)-dione], the Kinact/Kl turned out to be 210000 M⁻¹ s⁻¹.

Take `C=CC(=O)N1CC2CN(CCN3C[C@H]4CC(=O)N(c5cc(C(F)(F)F)cc(C)n5)[C@@H]4C(=O)N(C)c4cccc(F)c43)CCN2C[C@@H]1C` (single isomer, unassigned) [Example 10]: the Kinact/Kl came to 210000 M⁻¹ s⁻¹.

For the compound `C=CC(=O)N1CCn2c(nc(CN3C[C@H]4CC(=O)N(c5cc(C(F)(F)F)cc(C)n5)[C@@H]4C(=O)N(C)c4cccc(C)c43)c2C)C1` [Example 74, (3aR,11aS)-5-((7-acryloyl-3-methyl-5,6,7,8-tetrahydroimidazo[1,2-a]pyrazin-2-yl)methyl)-6,10-dimethyl-1-(6-methyl-4-(trifluoromethyl)pyridin-2-yl)-1,3a,4,5,10,11a-hexahydro-2H-benzo[b]pyrrolo[2,3-f][1,4]diazocine-2,11(3H)-dione], the Kinact/Kl turned out to be 5.83e+06 M⁻¹ s⁻¹.

In turn, `C=CC(=O)N1CC2(CN(CCN3C[C@H]4CC(=O)N(c5cc(C(F)(F)F)cc(C)n5)[C@@H]4C(=O)N(C)c4cccc(F)c43)CC3COCCN32)C1` (single isomer, unassigned) [Example 24a] registered a Kinact/Kl of 1.63e+06 M⁻¹ s⁻¹.

As to `C=CC(=O)N1Cc2nc(CN3C[C@H]4CC(=O)N(c5cc(C(F)(F)F)cc(C)n5)[C@@H]4C(=O)Nc4cccc(Cl)c43)cn2CC1C` (single isomer, unassigned) [Example 144a], the Kinact/Kl came to 1.06e+06 M⁻¹ s⁻¹.

`C=CC(=O)N1Cc2cc(CN3C[C@H]4CC(=O)N(c5cc(C(F)(F)F)cc(C)n5)[C@@H]4C(=O)N(C)c4cccc(C)c43)cnc2C1COC` (single isomer, unassigned) [Example 235] registered a Kinact/Kl of 270000 M⁻¹ s⁻¹.

Take `Cc1cc(C(F)(F)F)cc(N2C(=O)C[C@@H]3CN(CCCOC4CN(C(=O)/C=C/CN(C)C)C4)c4c(F)cccc4N(C)C(=O)[C@H]32)n1` [Example 43, (3aR,11aS)-5-(3-((1-((E)-4-(dimethylamino)but-2-enoyl)azetidin-3-yl)oxy)propyl)-6-fluoro-10-methyl-1-(6-methyl-4-(trifluoromethyl)pyridin-2-yl)-1,3a,4,5,10,11a-hexahydro-2H-benzo[b]pyrrolo[2,3-f][1,4]diazocine-2,11(3H)-dione]: the Kinact/Kl is 1.9e+06 M⁻¹ s⁻¹.

The compound `C=CC(=O)N1CCC(N2CCC(CN3C[C@H]4CC(=O)N(c5cc(C(F)(F)F)cc(C)n5)[C@@H]4C(=O)N(C)c4cccc(Cl)c43)CC2)C1` (stereo partly drawn) [Example 222, (3aR,11aS)-5-((1-(1-acryloylpyrrolidin-3-yl)piperidin-4-yl)methyl)-6-chloro-10-methyl-1-(6-methyl-4-(trifluoromethyl)pyridin-2-yl)-1,3a,4,5,10,11a-hexahydro-2H-benzo[b]pyrrolo [2,3-f][1,4] diazocine-2,11(3H)-dione] had a Kinact/Kl of 2.04e+06 M⁻¹ s⁻¹.

Regarding `C=CC(=O)NC12CC(CN3C[C@H]4CC(=O)N(c5cc(C(F)(F)F)cc(C)n5)[C@@H]4C(=O)N(C)c4cccc(C)c43)(C1)C2` [Example 174, N-(3-(((3aR,11aS)-6,10-dimethyl-1-(6-methyl-4-(tri-fluoromethyl)pyr-idin-2-yl)-2,11-dioxo-1,2,3,3a,4, 10,11,11a-octa-hydro-5H-benzo [b]pyrrolo[2,3-f] [1,4]diazocin-5-yl)methyl)bicyclo [1.1.1]pentan-1-yl)acrylamide], the Kinact/Kl was 1.08e+06 M⁻¹ s⁻¹.

Take `C=CC(=O)N1C[C@H]2CCN(CCN3C[C@H]4CC(=O)N(c5cc(C(F)(F)F)cc(C)n5)[C@@H]4C(=O)N(C)c4cccc(F)c43)C[C@H]2C1` (relative stereo) [Example 25a, (3aR,11aS)-5-(2-((3aS/R,7aS/R)-2-acryloyloctahydro-5H-pyrrolo[3,4-c]pyridin-5-yl)ethyl)-6-fluoro-10-methyl-1-(6-methyl-4-(trifluoromethyl)pyridin-2-yl)-1,3a,4,5,10,11a-hexahydro-2H-benzo[b]pyrrolo[2,3-f][1,4]diazocine-2, 11(3H)-dione]: the Kinact/Kl was found to be 200000 M⁻¹ s⁻¹.

Regarding `C=CC(=O)N1CCN2CCN(CCN3C[C@H]4CC(=O)N(c5cc(C(F)(F)F)cc(C)n5)[C@@H]4C(=O)N(C)c4cccc(F)c43)C(=O)[C@H]2C1` [Example 46, (3aR,11aS)-5-(2-((R)-8-acryloyl-1-oxooctahydro-2H-pyrazino[1,2-a]pyrazin-2-yl)ethyl)-6-fluoro-10-methyl-1-(6-methyl-4-(trifluoromethyl)pyridin-2-yl)-1,3a,4,5,10,11a-hexahydro-2H-benzo [b]pyrrolo[2,3-f][1,4] diazocine-2,11(3H)-dione], the Kinact/Kl amounted to 480000 M⁻¹ s⁻¹.

In the case of `C=CC(=O)N1CC(c2cccc(CN3C[C@H]4CC(=O)N(c5cc(C(F)(F)F)cc(C)n5)[C@@H]4C(=O)N(C)c4cccc(F)c43)c2)C1` [Example 127, (3aR,11aS)-5-(3-(1-acryloylazetidin-3-yl)benzyl)-6-fluoro-10-methyl-1-(6-methyl-4-(trifluoromethyl)pyridin-2-yl)-1,3a,4,5,10,11a-hexahydro-2H-benzo[b]pyrrolo[2,3-f][1,4]diazocine-2,11(3H)-dione], the Kinact/Kl turned out to be 650000 M⁻¹ s⁻¹.
